pIC50: −log10 of the molar value.
Tests used:
[1] = target: Focal adhesion kinase 1 (Homo sapiens, UniProt Q05397); test: (§1) Biochemical Assay: To measure inhibitory activity of FAK/PYK2 inhibitors, compounds were first prepare as a 1 mM stock in 100% DMSO and 3-fold serial dilution was performed in a 96-well plate (Corning, 3897) to generate 12 different concentration of 100× stock. A 5 μl of 100× stock of each concentration was added to wells containing 95 μl of 1× reaction buffer (40 mM Tris, pH7.5, […], 1 mM DTT and 1 mM CHAPS) to generate 5× stock. Then 2 μl of 5× stock of each concentration was added to a 384 wells-OptiPlate (PerkinElmer, 6007299). For FAK, 4 μl of 2.5 nM FAK, 1 μl of 8 μg/μl BSA and 1.5 μl of 666 nM ULight-poly Glu, Ala, Tyr (1:1:1) peptide substrate, prepared in above reaction buffer, were added to each well. The reaction was initiated by adding 1.5 μl of 33.3 μM ATP. The reaction was allowed to proceed for 120 min before being quenched with 5 μl of 40 mM EDTA stop buffer prepared in 1×LANCE detection buffer (PerkinElmer, CR97-100). For PYK2, 5 μl of 2 nM PYK2 and 1.5 μl of 666 nM ULight-poly Glu, Ala, Tyr (1:1:1) peptide substrate, prepared in above reaction buffer, were added to each well. The reaction was initiated by adding 1.5 μl of 46.6 μM ATP. The reaction was allowed to proceed for 40 min before being quenched with 5 μl of 40 mM EDTA stop buffer prepared in 1×LANCE detection buffer (PerkinElmer, CR97-100). Upon quenching of the reaction, 5 μl of 8 nM anti-phosphotyrosine antibody was added to each well and incubated for 60 minutes.
Sequence of Focal adhesion kinase 1 (Q05397 whole entry): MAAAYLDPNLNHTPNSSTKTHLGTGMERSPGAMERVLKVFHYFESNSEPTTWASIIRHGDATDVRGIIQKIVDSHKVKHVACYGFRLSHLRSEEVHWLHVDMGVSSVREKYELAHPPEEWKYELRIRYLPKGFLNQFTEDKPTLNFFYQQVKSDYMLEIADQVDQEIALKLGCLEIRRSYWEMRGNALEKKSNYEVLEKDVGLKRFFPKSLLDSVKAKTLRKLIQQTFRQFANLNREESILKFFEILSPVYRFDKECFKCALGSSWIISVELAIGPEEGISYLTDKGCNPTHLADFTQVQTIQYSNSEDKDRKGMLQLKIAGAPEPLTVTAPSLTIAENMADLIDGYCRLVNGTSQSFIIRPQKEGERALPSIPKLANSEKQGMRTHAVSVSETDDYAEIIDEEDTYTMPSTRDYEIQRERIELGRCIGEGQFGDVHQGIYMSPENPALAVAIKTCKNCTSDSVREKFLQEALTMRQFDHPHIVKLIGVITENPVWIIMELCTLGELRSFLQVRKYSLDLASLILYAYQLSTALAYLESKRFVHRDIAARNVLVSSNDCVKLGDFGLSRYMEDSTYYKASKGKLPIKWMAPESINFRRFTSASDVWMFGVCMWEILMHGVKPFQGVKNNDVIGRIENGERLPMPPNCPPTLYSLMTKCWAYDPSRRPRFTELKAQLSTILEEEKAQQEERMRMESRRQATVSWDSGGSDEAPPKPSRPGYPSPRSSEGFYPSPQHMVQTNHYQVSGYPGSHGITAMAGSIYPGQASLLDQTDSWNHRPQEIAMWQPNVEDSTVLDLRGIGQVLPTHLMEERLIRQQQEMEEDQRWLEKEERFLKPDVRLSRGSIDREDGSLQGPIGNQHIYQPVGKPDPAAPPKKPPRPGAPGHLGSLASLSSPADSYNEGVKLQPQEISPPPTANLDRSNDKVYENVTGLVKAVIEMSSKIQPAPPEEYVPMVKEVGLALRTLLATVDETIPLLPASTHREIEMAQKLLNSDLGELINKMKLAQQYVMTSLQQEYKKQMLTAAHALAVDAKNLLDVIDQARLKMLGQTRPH

[2] = target: Protein-tyrosine kinase 2-beta (Homo sapiens, UniProt Q14289); test: as §1
Sequence of Protein-tyrosine kinase 2-beta (Q14289 whole entry): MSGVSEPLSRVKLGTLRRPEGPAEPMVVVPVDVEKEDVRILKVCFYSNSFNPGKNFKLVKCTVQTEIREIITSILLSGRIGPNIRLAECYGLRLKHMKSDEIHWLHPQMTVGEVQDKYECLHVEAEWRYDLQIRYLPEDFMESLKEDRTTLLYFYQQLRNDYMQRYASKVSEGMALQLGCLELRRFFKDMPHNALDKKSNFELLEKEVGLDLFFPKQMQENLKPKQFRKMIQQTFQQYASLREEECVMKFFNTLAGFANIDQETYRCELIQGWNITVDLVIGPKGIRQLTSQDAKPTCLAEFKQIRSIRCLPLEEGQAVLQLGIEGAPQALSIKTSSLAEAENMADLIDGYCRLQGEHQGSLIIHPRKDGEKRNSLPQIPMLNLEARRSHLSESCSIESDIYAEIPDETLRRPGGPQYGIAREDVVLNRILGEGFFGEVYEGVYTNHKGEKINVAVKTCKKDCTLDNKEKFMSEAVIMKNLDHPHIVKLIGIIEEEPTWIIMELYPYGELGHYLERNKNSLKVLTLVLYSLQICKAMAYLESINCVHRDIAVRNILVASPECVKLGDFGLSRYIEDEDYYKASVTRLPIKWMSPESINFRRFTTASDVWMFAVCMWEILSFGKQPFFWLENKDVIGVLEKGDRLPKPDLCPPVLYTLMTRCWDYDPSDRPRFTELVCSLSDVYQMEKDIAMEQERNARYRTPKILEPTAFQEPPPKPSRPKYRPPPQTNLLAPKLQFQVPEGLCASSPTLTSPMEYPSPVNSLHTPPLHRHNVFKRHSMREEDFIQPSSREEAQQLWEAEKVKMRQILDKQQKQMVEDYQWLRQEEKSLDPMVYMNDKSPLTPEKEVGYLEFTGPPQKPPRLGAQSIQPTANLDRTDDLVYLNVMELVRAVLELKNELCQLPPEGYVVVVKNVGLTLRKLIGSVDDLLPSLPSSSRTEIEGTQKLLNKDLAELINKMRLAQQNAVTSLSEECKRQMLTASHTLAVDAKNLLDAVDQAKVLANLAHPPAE

SMILES: CC(C)NS(=O)(=O)c1ccccc1Nc1nc(Nc2ccc(C(C)N3CCCCC3)cc2)nc2c1CCN2 (stereo unspecified)
- pIC50 [1]: > 7.70
- pIC50 [2]: > 7.70

SMILES: COc1cc(N2CCOCC2)ccc1Nc1nc2c(c(Nc3ccccc3CCO)n1)CCN2
- pIC50 [1]: > 6.00
- pIC50 [2]: > 6.00

SMILES: COc1cc(N2CCCCC2=O)ccc1Nc1nc2c(c(Nc3ccccc3S(=O)(=O)NC(C)C)n1)CCN2
- pIC50 [1]: > 7.70
- pIC50 [2]: > 7.70

SMILES: COc1cc(N2C(=O)CCc3ccccc32)ccc1Nc1nc2c(c(Nc3ccccc3S(=O)(=O)NC(C)C)n1)CCN2
- pIC50 [1]: > 6.30
- pIC50 [2]: > 6.30

SMILES: COc1cc(N2CCOCC2)ccc1Nc1nc2c(c(Nc3ccc(F)c(F)c3)n1)CCN2
- pIC50 [1]: < 6.00
- pIC50 [2]: > 6.00

SMILES: CCOc1cc(N2CCOCC2)ccc1Nc1nc2c(c(Nc3ccccc3S(=O)(=O)NC(C)C)n1)CCN2
- pIC50 [1]: > 7.30
- pIC50 [2]: > 7.00

SMILES: COc1cc(N2CCC(N3CCOCC3)CC2)ccc1Nc1nc2c(c(Nc3ccccc3S(=O)(=O)NC(C)C)n1)CCN2
- pIC50 [1]: > 7.70
- pIC50 [2]: > 7.70

SMILES: CCC(C)NS(=O)(=O)c1ccccc1Nc1nc(Nc2ccc(N3CCOCC3)cc2OC)nc2c1C1(CC1)CN2 (stereo unspecified)
- pIC50 [1]: > 7.70
- pIC50 [2]: > 7.70

Source: ChEMBL document CHEMBL3886913, “2,4-diamino-6,7-dihydro-5H-pyrrolo[2,3]pyrimidine derivatives as FAK/Pyk2 inhibitors” (2016)
